In patent US20230117034A1, “PYRAZOLOTRIAZINES” (Bayer Aktiengesellschaft, priority 2019, published 2023):

Key:
CDK9/CycT1 = target: T1, CDK9/CycT1 (Homo sapiens, UniProt P50750); experiment: CDK9/CycT1 high ATP kinase assay (TR-FRET, 2 mM ATP); assay type: biochemical; conditions: 2 mM ATP (high ATP); median; read-out: CDK9/CyclinT1, 2 mM ATP (high ATP), IC50 (median)
T1 construct: Recombinant full-length His-tagged human CDK9 and CycT1; purchased Life Technologies PV4131; host or cells: insect cells
In short: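 Full-length His-tagged human CDK9/CycT1 (insect cell, ~0.5 μg/mL) preincubated 15 min at 22 °C with compound in Tris pH 8.0, MgCl2, DTT buffer before reaction with biotinylated peptide substrate at high ATP (2 mM).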

[1] = test system: MDA-MB-231, human breast cancer cells; experiment: Proliferation assay MDA-MB-231 (crystal violet, 4 days); assay type: cell-based; conditions: Homo sapiens, MDA-MB-231, 96 h, MDA-MB-231 cells, median, read-out: Prolif-MDA MB-231, IC50-[mol/l] (median)
In short: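 Growth was measured by crystal violet staining after cells had been treated with compounds (0.01-10 µmol/L, 0.1% DMSO) for 4 days, beginning 24 h after seeding. Values were normalized to a zero-point plate and to untreated controls, and IC50 values were derived by a four-parameter fit.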

T1 sequence (P50750 whole entry): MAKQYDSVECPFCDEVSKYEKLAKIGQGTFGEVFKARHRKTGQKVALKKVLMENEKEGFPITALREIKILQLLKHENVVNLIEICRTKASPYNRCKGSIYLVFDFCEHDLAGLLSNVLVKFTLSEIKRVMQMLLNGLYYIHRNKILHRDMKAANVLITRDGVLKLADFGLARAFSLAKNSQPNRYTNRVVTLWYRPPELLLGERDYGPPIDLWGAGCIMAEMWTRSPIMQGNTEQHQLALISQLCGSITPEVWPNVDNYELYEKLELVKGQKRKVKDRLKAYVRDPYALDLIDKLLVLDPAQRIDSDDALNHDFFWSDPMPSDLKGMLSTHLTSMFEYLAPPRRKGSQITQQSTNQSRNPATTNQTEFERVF
T1 sequence (O60563 whole entry partner): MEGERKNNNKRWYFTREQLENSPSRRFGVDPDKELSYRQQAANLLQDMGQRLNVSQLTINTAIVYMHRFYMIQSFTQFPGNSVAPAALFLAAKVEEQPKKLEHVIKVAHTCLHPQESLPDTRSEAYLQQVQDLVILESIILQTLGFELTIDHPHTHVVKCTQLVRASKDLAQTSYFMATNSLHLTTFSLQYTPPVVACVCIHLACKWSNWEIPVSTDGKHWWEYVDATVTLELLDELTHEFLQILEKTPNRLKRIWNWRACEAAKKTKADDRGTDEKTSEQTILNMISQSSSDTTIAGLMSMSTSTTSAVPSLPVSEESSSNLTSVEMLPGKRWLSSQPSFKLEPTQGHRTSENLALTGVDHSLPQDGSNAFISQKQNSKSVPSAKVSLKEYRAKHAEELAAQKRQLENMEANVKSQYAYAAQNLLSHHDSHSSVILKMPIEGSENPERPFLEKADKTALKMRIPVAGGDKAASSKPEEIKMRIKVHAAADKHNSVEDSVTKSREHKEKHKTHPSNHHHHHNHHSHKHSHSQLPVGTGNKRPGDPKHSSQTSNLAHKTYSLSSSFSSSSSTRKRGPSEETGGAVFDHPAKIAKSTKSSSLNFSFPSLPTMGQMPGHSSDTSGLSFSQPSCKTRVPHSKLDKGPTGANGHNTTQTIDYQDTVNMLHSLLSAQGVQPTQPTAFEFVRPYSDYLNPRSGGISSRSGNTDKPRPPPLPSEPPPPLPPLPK

IC50 (CDK9/CycT1) [µM] | IC50 [1] [µM] | SMILES
> 20 | 0.0507 | c1ccc2[nH]c(CNc3nc(N4CCNCC4)nc4c(C5CC5)cnn34)nc2c1 [Example 247, N-[(1H-benzimidazol-2-yl)methyl]-8-cyclopropyl-2-(piperazin-1-yl)pyrazolo[1,5-a][1,3,5]triazin-4-amine]
> 20 | 0.0107 | COc1ccc2[nH]c(CNc3nc(N4CCOCC4)nc4c(C(F)(F)F)cnn34)nc2c1 [Example 257, N-[(5-methoxy-1H-benzimidazol-2-yl)methyl]-2-(morpholin-4-yl)-8-(trifluoromethyl)pyrazolo[1,5-a][1,3,5]triazin-4-amine]
> 20 | 0.0649 | CC1(N)CCN(c2nc(NCc3nc4ccccc4[nH]3)n3ncc(Br)c3n2)CC1 [Example 290, 2-(4-amino-4-methylpiperidin-1-yl)-N-[(1H-benzimidazol-2-yl)methyl]-8-bromopyrazolo[1,5-a][1,3,5]triazin-4-amine]
> 20 | 0.0348 | FC1(F)CC1c1cnn2c(NCc3nc4ccccc4[nH]3)nc(N3CCOCC3)nc12 (stereo not drawn) [Example 279, N-[(1H-benzimidazol-2-yl)methyl]-8-(2,2-difluorocyclopropyl)-2-(morpholin-4-yl)pyrazolo[1,5-a][1,3,5]triazin-4-amine]
> 20 | 0.00422 | Fc1cc2nc(CNc3nc(N4CCOCC4)nc4c(C5CC5)cnn34)[nH]c2cc1F [Example 318, 8-cyclopropyl-N-[(5,6-difluoro-1H-benzimidazol-2-yl)methyl]-2-(morpholin-4-yl)pyrazolo[1,5-a][1,3,5]triazin-4-amine]
> 20 | 0.00853 | FC(F)(F)Cc1cnn2c(NCc3nc4cc(Cl)ccc4[nH]3)nc(N3CCOCC3)nc12 [Example 299, N-[(5-chloro-1H-benzimidazol-2-yl)methyl]-2-(morpholin-4-yl)-8-(2,2,2-trifluoroethyl)pyrazolo[1,5-a][1,3,5]triazin-4-amine]
> 20 | 0.00387 | FC(F)(F)c1cnn2c(NCc3nc4cc(Cl)ccc4[nH]3)nc(N3CCOCC3)nc12 [Example 275, N-[(5-chloro-1H-benzimidazol-2-yl)methyl]-2-(morpholin-4-yl)-8-(trifluoromethyl)pyrazolo[1,5-a][1,3,5]triazin-4-amine]
3.24 | 0.0339 | Brc1cnn2c(NCc3ncc(-c4ccccc4)[nH]3)nc(N3CCOCC3)nc12 [Example 23, 8-bromo-2-(morpholin-4-yl)-N-[(5-phenyl-1H-imidazol-2-yl)methyl]pyrazolo[1,5-a][1,3,5]triazin-4-amine]
> 20 | 0.0293 | Brc1cnn2c(NCc3nc4ccccc4[nH]3)nc(N3C[C@H]4C[C@@H]3CN4)nc12 [Example 269, N-[(1H-benzimidazol-2-yl)methyl]-8-bromo-2-[(1R,4R)-2,5-diazabicyclo[2.2.1]heptan-2-yl]pyrazolo[1,5-a][1,3,5]triazin-4-amine]
> 20 | 0.023 | Fc1ccc2[nH]c(CNc3nc(N4CCOCC4)nc4c(C5CCC5)cnn34)nc2c1F [Example 264, 8-cyclobutyl-N-[(4,5-difluoro-1H-benzimidazol-2-yl)methyl]-2-(morpholin-4-yl)pyrazolo[1,5-a][1,3,5]triazin-4-amine]
> 20 | 0.00505 | Fc1cc2nc(CNc3nc(N4CCOCC4)nc4c(C5CC5)cnn34)[nH]c2cc1Cl [Example 307, N-[(6-chloro-5-fluoro-1H-benzimidazol-2-yl)methyl]-8-cyclopropyl-2-(morpholin-4-yl)pyrazolo[1,5-a][1,3,5]triazin-4-amine]

SMILES | IC50 (CDK9/CycT1) [µM] | IC50 [1] [µM]
N[C@@H]1[C@@H]2C[C@H]1CN(c1nc(NCc3nc4ccccc4[nH]3)n3ncc(Br)c3n1)C2 [Example 289, 2-[(1R,5S,6s)-6-amino-3-azabicyclo[3.1.1]heptan-3-yl]-N-[(1H-benzimidazol-2-yl)methyl]-8-bromopyrazolo[1,5-a][1,3,5]triazin-4-amine] | > 20 | 0.0103
